From ChEMBL document CHEMBL1159246, “Further Structural Studies on the Petroformynes” (J Nat Prod, 1995)

These compounds were tested on Artemia salina (assay: Toxicity in Artemia salina after 24 hrs). Details: in vivo.
Assay type: organism-based

Compound | LD50 [ppm]
C#CCCCCCCCCCCCCCCCC/C=C\CC/C=C\C#CC(O)C#CCCCC/C=C\CCCCCC/C=C/C(O)C#C (centres undefined) [ISOPETROFORMYNE 3] | 0.26
C#CC(=O)/C=C/CC/C=C\CCCC/C=C\CCC#CC(O)C#C/C=C/CC/C=C\CCCCCCCCCCCCC/C=C/C(O)C#C (centres undefined) [PETROFORMYNE 8] | 0.77
C#CC(=O)/C=C/CCCCCC/C=C\CCCCC#CC(O)C#C/C=C/CC/C=C\CCCCCCCCCCCCC/C=C/C(=O)C#C (centres undefined) | 0.18
C#CCCCCCCCCCCCCCCCC/C=C\CC/C=C/C#CC(=O)C#CCCCC/C=C\CCCCCC/C=C/C(O)C#C (centres undefined) | 1
C#C/C=C\CCCCCCCCCCCCCC/C=C\CC/C=C\C#CC(O)C#CCCCC/C=C\CCCCCC/C=C/C(O)C#C (centres undefined) [ISOPETROFORMYNE 4] | 0.6
C#C/C=C\CCCCCCCCCCCCCC/C=C\CCCCC#CC(O)C#CCCCC/C=C\CCCCCC/C=C/C(=O)C#C (centres undefined) | 0.5
C#CC(=O)/C=C/CC/C=C\CCCC/C=C\CCC#CC(O)C#C/C=C/CC/C=C\CCCCCCCCCCCCC/C=C/C(=O)C#C (centres undefined) | 5
C#CCCCCCCCCCCCCCCCC/C=C\CC/C=C\C#CC(O)C#CCCCC/C=C\CCCCCCCCC(O)C#C (centres undefined) | 6.8
C#CCCCCCCCCCCCCCCCC/C=C\CCCCC#CC(=O)C#CCCCC/C=C\CCCCCC/C=C/C(O)C#C (centres undefined) | 6.3
